These results are taken from patent US8765447B2, “Fungal strain Beauveria sp. MTCC 5184 and a process for the preparation of enzymes therefrom” (Council of Scientific and Industrial Research, priority 2010, dated 2014).

Experiment [1] has as its system purified protease of Beauveria sp MTCC 5184. In words: Effect of β-mercapto ethanol and Triton X-100 on protease activity. The experiment is classed as biochemical. To be noted: 30 min. An excerpt:
This example illustrates the effect of β-mercapto ethanol (BME) and Triton X-100 on protease activity of Beauveria sp MTCC 5184.

Experiment [2] relates to protease of Beauveria sp MTCC 5184. The experiment in a line: Effect of inhibitors on protease activity. It counts as biochemical. The protocol:
The protease activity has been expressed in terms of tyrosine equivalents. The reaction mixture contained an aliquot of suitably diluted enzyme solution and 10 mg Hammerstein casein in 0.1 M sodium carbonate buffer pH 9.0 in a total volume of 2 ml. After incubation at 50° C. for 10 min, the reaction was terminated by the addition of 3 ml of 5% trichloroacetic acid (acidified with concentrated hydrochloric acid). The precipitate formed was filtered through Whatman No. 1 filter paper after standing for 30 min at room temperature. The absorbance of trichloroacetic acid soluble fraction was measured at 280 nm. Micrograms of tyrosine produced was calculated from a pre-calibrated graph of absorbance at 280 nm against tyrosine concentration and the units are expressed as […] of tyrosine released per minute under assay conditions.
This example illustrates the effect of inhibitors on protease activity of Beauveria sp MTCC 5184. Following inhibitors were studied: phenylmethylsulfonyl fluoride (PMSF), ethylene-diaminetetraacetic acid (EDTA), iodoacetic acid, N-tosyl-L-phenylalanine chloromethyl ketone (TPCK), N-tosyl-L-lysine chloromethyl ketone (TLCK), Dimethylsulphoxide (DMSO) and Benzamidine. […] Protease without inhibitor served as control.

The subject of experiment [3] is purified protease of Beauveria sp MTCC 5184. The experiment in a line: Stability of purified protease in organic solvents at 50° C. It counts as biochemical. The following applies: 25% (v/v) solvent, pH 7. The source says: Following organic solvents were used: acetone, 1-butanol, benzene, chloroform, dimethylsulphoxide, ethanol, hexane, isopropanol and methanol. […] Samples were removed at different time intervals and residual activity was estimated.

Experiment [4] relates to protease of Beauveria sp MTCC 5184. The experiment in a line: Stability of protease at 37° C. in water miscible solvents. The experiment is classed as biochemical. The following applies: water miscible solvents (FIG. 10). The protocol:
FIG. 10: Stability of protease at 37° C. in presence of water miscible solvents.

Experiment [5] relates to purified protease of Beauveria sp MTCC 5184. To be noted: 3 M NaCl (FIG. 14), 28° C., 30 min. The protocol:
Samples were removed at regular intervals and residual activity was measured at 50° C., pH 9.0 and expressed as percentage of activity without NaCl taken as 100%.

Experiment [6] has the same test system. The experiment in a line: Effect of urea on protease activity. It counts as biochemical. The following applies: 6M urea, 28° C., 2 h. The protocol:
This example illustrates the effect of urea on protease activity of Beauveria sp MTCC 5184. […] In presence of 6M urea, protease was stable up to 2 h and retained more than 85% of initial activity (FIG. 13).

Setting [7] is: inhibitor 5 mM, pre-incubated 1 h, pH 8.0.

Take `OCCS` [BME, β-mercapto ethanol]: the activity retained result in experiment [1] (10% BME, 28° C.) is reported as “retained full activity”. Take `N=C(N)c1ccccc1` [Benzamidine]: the “Inhibition (%)” value in experiment [2] (setting [7]) is 3.62%. For the molecule `C[S+](C)[O-]` [DMSO, Dimethylsulphoxide], the “Inhibition (%)” value in experiment [2] (inhibitor 10%, pre-incubated 1 h, pH 8.0) was found to be 0.04%. Moreover, the “Residual Activity (%)” value in experiment [3] (0 h) came out at 100.00%; in experiment [3] (1 h), 87.52%. `O=C(O)CN(CCN(CC(=O)O)CC(=O)O)CC(=O)O` [EDTA, ethylene-diaminetetraacetic acid]: in experiment [2] (inhibitor 20 mM, pre-incubated 1 h, pH 8.0), the “Inhibition (%)” value turned out to be 1.51%.

Turning to `O=C(O)CI` [Iodoacetate, iodoacetic acid], in experiment [2] (pH 8), the “Inhibition (%)” value is 0.30%.

Take `CO` [Methanol, methanol]: in experiment [4], the initial activity retained is listed as over 80%. For the same molecule, the “Residual Activity (%)” value stood at 100.00% in experiment [3] (0 h), 93.49% in experiment [3] (1 h) and 46.09% in experiment [3] (2 h).

The molecule `[Cl-].[Na+]` [NaCl] came in with a stability in experiment [5] of 100%. As to `NC(N)=O` [urea], in experiment [6], the initial activity retained entry was “more than 85%”. On to “N-tosyl-L-lysine chloromethyl ketone [TLCK]”, for which the “Inhibition (%)” value in experiment [2] (setting [7]) came out at 12.12%. On the same count and under the same terms, the result for “N-tosyl-L-phenylalanine chloromethyl ketone [TPCK]” reads 7.33%. In experiment [1] (2% Triton X-100, 28° C.), Triton X-100 had an activity retained of 80%.
